Reference: PMC7672424 (Nucleic Acids Research, 2020)
Each block holds one compound with its values, some of them ahead of it.

Columns and labels:
[1] = test system: FAM-TTA45-TAMRA (DNA, G4) GGGTTAGGGTTAGGGTTAGGGTTAGGGTTAGGGTTAGGGTTAGGG; assay: FRET melting; settings: 100 mM K+ (KCl) plus 10 mM potassium phosphate, pH 7.0, 0.5 µM DNA
[2] = test system: TTA (DNA, G4) GGGTTAGGGTTAGGGTTAGGG; assay: CD melting; settings: 50 mM K+; 10 mM Tris-HCl pH 7.4; 5 µM DNA, 20 µM compound
[3] = test system: TTA45 (DNA, G4) GGGTTAGGGTTAGGGTTAGGGTTAGGGTTAGGGTTAGGGTTAGGG; assay: CD melting; settings: 50 mM K+; 10 mM Tris-HCl pH 7.4; 5 µM DNA, 20 µM compound
TTA45 [4] = assay: FRET melting assay, stabilization of TTA45; format: binding, human; settings: for ΔTm/°C, TTA45 stabilization by FRET (Table S3) / ΔTm/°C, stabilization of TTA45 by FRET (Table S2): 0.5 µM TTA45, 10 mM K2HPO4/KH2PO4, 100 mM KCl, pH 7.0; for ΔTm/°C, TTA45 stabilization by FRET (Table S3): 20 µM compounds; for stabilization of TTA45 (in words, SAR): FRET assay
Experimental: Based on the conventional G-quadruplex ligand design ([46]), ∼400 compounds were selected from Chinese National Compound library of Peking University (PKU-CNCL). These compounds were evaluated for their ability to bind to TTA45 by Fluorescence Resonance Energy Transfer (FRET) assay (Supplementary Tables S1 and S2) ([47]). […] Compounds 21-38 were purchased to study their binding with TTA45 by FRET (Supplementary Table S3). […] page 4: Table S2. Stabilization of TTA45 as determined by FRET assays (continued). Compounds Structures ΔTm/°C Compounds Structures ΔTm/°C 23 10.3 25 14.6 […] OH 24 […] KCl, pH 7.0) was determined by FRET procedure, and Tm/°C were derived by their difference. The concentration of compounds 21-26 were 20 μM , and other compounds were 50 μM. FRET assay was carried out on the Real-Time PCR 3.2 machine (Analytik Jena, Germany). The total reaction volume was 20 μL with 0.5 μM of oligonucleotide labelled with FAM at the 3' end and TAMRA at 5' end in 10 mM K2HPO4/KH2PO4 (pH 7.0) containing 100 mM KCl. […] Then compounds with various concentrations were added into the DNA samples.

TTA45 [5] = assay: CD melting, DNA stabilization; format: binding, human; settings: 5 µM DNA, 20 µM compound, 10 mM Tris-HCl, 50 mM KCl, pH 7.4
Description: Compounds Structures IC /µM m

A549 = assay: Cell cytotoxicity assay (CCK8); format: cell-based, human; settings: CCK8, 48 h treatment
Experimental: (§1) The cell growth effect of BMPQ-1 against different cell lines were tested via measuring the quantity of living cells using the Cell Counting Kit-8 (CCK8) (DOJINDO, Japan) according to the instruction. Cells were seeded in a 96-well plate (5 × 10^3 cells/well) and grown for 24 h for attachment. Then the cells were treated with various concentrations of BMPQ-1 and incubated at 37°C with 5% CO2 for 48 h. After incubation, the old medium was discarded followed by adding fresh medium containing 10% FBS in DMEM. Then 100 μl CCK-8 (10% in grow medium) was added into each well, and the cells were further incubated for 1 h. The optical density (OD) was detected at 450 nm by an automated microplate reader (Bio-Rad). The IC50 values were derived from the curves of the mean percentage of survival against the drug concentration. All the experiments were performed in triplicate.
(§2) A Cell Counting Kit-8 (CCK8) (DOJINDO, Japan) was employed to evaluate the cytotoxicity of BMPQ-1 on human alveolar basal epithelial cancer cell line (A549), human hepatocellular carcinoma cancer cell line (HepG2), human gastric cancer cell line (MGC-803), human colon adenocarcinoma (HT29), human normal liver Cells (HL-7702).

TTA = settings: CD melting; 5 µM DNA, 20 µM compound; 10 mM Tris-HCl, 50 mM KCl, pH 7.4
Experimental: CD studies were performed on a Chirascan circular dichroism spectrophotometer (Jasco, Easton, MD, USA). A quartz cuvette with a 1 mm path length was used to record the spectra over a wavelength range of 220–320 nm with a 1 nm bandwidth. All the samples were prepared in buffer containing 10 mM Tris–HCl pH 7.4, 100 mM KCl. To ensure the concentrations of G-quadruplex units to be 20 μM, multiple G-quadruplexes forming oligonucleotides with different concentrations were used (TTA (G1) 20 μM, TTA45 (G2) 10 μM, TTA69 (G3) 6.67 μM, TTA93 (G4) 5 μM, TTA117 (G5) 4 μM, TTA141 (G6) 3.33 μM). The DNA samples were heated at 95°C for 5 min and cooled down slowly to room temperature. […] Melting curves were measured at 295 nm and the range of temperature was 4–95°C.
a Melting temperature (T ) of 5 µM DNA samples with and without 20 µM BMPQ-1 analogs in 10 mM Tris-HCl
buffer (50 mM KCl, pH 7.4) was determined by circular dichroism spectroscopy, and ΔTm/°C were derived by

[6] = test system: TTA45 (DNA, G4) GGGTTAGGGTTAGGGTTAGGGTTAGGGTTAGGGTTAGGGTTAGGG; assay: CD melting; settings: 50 mM K+ (KCl); 10 mM Tris-HCl pH 7.4; 20 µM compound, 5 µM DNA
[7] = test system: TTA (DNA, G4) GGGTTAGGGTTAGGGTTAGGG; assay: CD melting; settings: 50 mM K+ (KCl); 10 mM Tris-HCl pH 7.4; 20 µM compound, 5 µM DNA
[8] = test system: FAM-TTA45-TAMRA (DNA, G4) GGGTTAGGGTTAGGGTTAGGGTTAGGGTTAGGGTTAGGGTTAGGG; assay: FRET melting; settings: 100 mM K+ (KCl) plus potassium phosphate; 10 mM K2HPO4/KH2PO4 pH 7.0; 0.5 µM DNA, 20 µM compound
HT29 = assay: Cell cytotoxicity assay (CCK8); format: cell-based, human; settings: CCK8, 48 h treatment
Experimental: as §1, §2

HepG2 = assay: Cell cytotoxicity assay (CCK8); format: cell-based, human; settings: CCK8, 48 h treatment
Experimental: as §1, §2

MGC-803 = assay: Cell cytotoxicity assay (CCK8); format: cell-based, human; settings: CCK8, 48 h treatment
Experimental: as §1, §2

- ΔTm ([1]; 50 µM compound): 1.54 °C
SMILES: C(=N\Nc1nnc2c(n1)[nH]c1ccccc12)/c1c2ccccc2cc2ccccc12

- ΔTm ([1]; 50 µM compound): 1.12 °C
SMILES: CCCNC(=O)Cn1nc(-c2ccc(CC)cc2)c2cnc3cc4c(cc3c21)OCCO4

- ΔTm ([1]; 20 µM compound): 0.98 ± 0.69 °C
SMILES: CCOc1ccc2c(c1)c1nnc(-c3ccccc3)c-1cn2-c1ccc(Cl)cc1

- ΔTm ([1]; 50 µM compound): 0.70 °C
SMILES: CN(Cc1ccc2c(c1)OCO2)C(=O)c1nn(C)c2c1CN(C(=O)C1=NOC(c3cccs3)C1)CC2 (centres unmarked)

- ΔTm ([1]; 50 µM compound): 3.85 °C
SMILES: COc1cc2c(-c3ccccc3[N+](=O)[O-])nc3c(c(-c4ccccc4)nn3-c3ccccc3)c2cc1OC

- ΔTm ([1]; 20 µM compound): 8.38 ± 1.73 °C
SMILES: COc1ccc2c(c1)c1nnc(-c3ccc(F)cc3)c-1cn2Cc1ccccc1

- ΔTm ([1]; 50 µM compound): 2.17 °C
SMILES: Cc1cc(C)n(-c2nnc3c4ccccc4n(CC(=O)NCCc4nc5ccccc5[nH]4)c3n2)n1

- ΔTm ([1]; 20 µM compound): 6.43 ± 0.70 °C
SMILES: Cc1ccc2c(c1)c1nnc(-c3ccc(F)cc3)c-1cn2Cc1ccccc1

- ΔTm ([1]; 20 µM compound): 2.54 ± 0.16 °C
SMILES: Clc1ccc(-n2cc3c(-c4ccccc4)nnc-3c3ccccc32)cc1

- ΔTm ([1]; 50 µM compound): 1.53 °C
SMILES: Oc1ccccc1/C=N/Nc1nnc2c3ccccc3n(Cc3ccccc3)c2n1

- ΔTm ([1]; 20 µM compound): 11.56 ± 0.36 °C
SMILES: c1cc2c(cc1Cn1cc3c(-c4ccc5c(c4)OCO5)nnc-3c3cc4c(cc31)OCO4)OCO2

SMILES: FC(F)(F)c1ccc(Cn2cc3c(-c4ccc5c(c4)OCO5)nnc-3c3cc4c(cc32)OCO4)cc1 [BMPQ-2]
- ΔTm [2]: 2.3 °C
- ΔTm [3]: 7.0 °C
- ΔTm/°C, TTA45 stabilization by FRET (Table S3) (TTA45 [4]): 12.59 ± 0.54 °C
- ΔTm/°C, stabilization of TTA45 by FRET (Table S2) (TTA45 [4]; compounds 21-26 20 µM): 12.6 °C
- ΔTm (°C) TTA45 (TTA45 [5]): 7.0 °C
- IC50 (A549): 1.99 ± 0.04 µM
- ΔTm ([1]; 20 µM compound): 12.59 ± 0.54 °C
- ΔTm (°C) TTA (TTA): 2.3 °C

SMILES: Cc1ccc(Cn2cc3c(-c4ccc5c(c4)OCO5)nnc-3c3ccccc32)cc1 [BMPQ-3]
- ΔTm [6]: 5.1 °C
- ΔTm [7]: 1.1 °C
- ΔTm/°C, TTA45 stabilization by FRET (Table S3) (TTA45 [4]): 10.28 ± 0.15 °C
- ΔTm/°C, stabilization of TTA45 by FRET (Table S2) (TTA45 [4]; compounds 21-26 20 µM): 10.3 °C
- ΔTm (°C) TTA45 (TTA45 [5]): 5.1 °C
- IC50 (A549): > 32 µM
- ΔTm ([1]; 20 µM compound): 10.28 ± 0.15 °C
- ΔTm (°C) TTA (TTA): 1.1 °C

SMILES: OCCn1cc2c(-c3ccc4c(c3)OCO4)nnc-2c2cc3c(cc21)OCO3 [BMPQ-4]
- ΔTm [6]: 4.9 °C
- ΔTm [7]: 2.3 °C
- ΔTm/°C, TTA45 stabilization by FRET (Table S3) (TTA45 [4]): 7.92 ± 0.12 °C
- ΔTm/°C, stabilization of TTA45 by FRET (Table S2) (TTA45 [4]; compounds 21-26 20 µM): 7.9 °C
- ΔTm (°C) TTA45 (TTA45 [5]): 4.9 °C
- IC50 (A549): > 32 µM
- ΔTm ([1]; 20 µM compound): 7.92 ± 0.12 °C
- ΔTm (°C) TTA (TTA): 2.3 °C

SMILES: COc1ccc(-c2nnc3c4cc5c(cc4n(Cc4ccccc4)cc2-3)OCCO5)cc1OC [BMPQ-5]
- ΔTm [6]: 4.6 °C
- ΔTm [7]: 4.3 °C
- ΔTm/°C, TTA45 stabilization by FRET (Table S3) (TTA45 [4]): 14.62 ± 0.46 °C
- ΔTm/°C, stabilization of TTA45 by FRET (Table S2) (TTA45 [4]; compounds 21-26 20 µM): 14.6 °C
- ΔTm (°C) TTA45 (TTA45 [5]): 4.6 °C
- IC50 (A549): 5.39 ± 0.46 µM
- ΔTm [8]: 14.62 ± 0.46 °C
- ΔTm (°C) TTA (TTA): 4.3 °C

SMILES: COc1ccc(-c2nnc3c4cc5c(cc4n(Cc4ccccc4)cc2-3)OCO5)cc1 [BMPQ-6]
- ΔTm [2]: 1.0 °C
- ΔTm [3]: 3.5 °C
- ΔTm/°C, TTA45 stabilization by FRET (Table S3) (TTA45 [4]): 11.68 ± 0.53 °C
- ΔTm/°C, stabilization of TTA45 by FRET (Table S2) (TTA45 [4]; compounds 21-26 20 µM): 11.7 °C
- ΔTm (°C) TTA45 (TTA45 [5]): 3.5 °C
- IC50 (A549): 2.49 ± 0.03 µM
- ΔTm ([1]; 20 µM compound): 11.68 ± 0.53 °C
- ΔTm (°C) TTA (TTA): 1.0 °C

SMILES: CN(C)c1ccc(Nc2c3ccc(NC(=O)CCN4CCCC4)cc3nc3cc(NC(=O)CCN4CCCC4)ccc23)cc1 [BRACO-19, reference compound]
- IC50 (A549): 6.71 ± 0.45 µM
- IC50 (HT29): 14.2 ± 1.78 µM
- IC50 (HepG2): 6.25 ± 0.8 µM
- IC50 (MGC-803): 7.07 ± 0.89 µM

- ΔTm ([1]; 50 µM compound): 9.04 °C
SMILES: CN1CCN(CCCSc2nnc3c(n2)[nH]c2ccccc23)CC1 [Compound 3]
- ΔTm/°C, stabilization of TTA45 by FRET (Table S2) (TTA45 [4]; compounds 50 µM): 9.04 °C

SMILES: Oc1ccccc1C=NNc1nnc2c3ccccc3n(Cc3ccccc3)c2n1 [Compound 5]
- ΔTm/°C, stabilization of TTA45 by FRET (Table S2) (TTA45 [4]; compounds 50 µM): 1.53 °C

- ΔTm ([1]; 50 µM compound): 5.11 °C
SMILES: CCC(Sc1nc2cc3c(cc2c(=O)n1Cc1ccc(C(=O)NCc2ccc4c(c2)OCO4)cc1)OCO3)C(=O)N1CCOCC1 (centres unmarked) [Compound 12]
- ΔTm/°C, stabilization of TTA45 by FRET (Table S2) (TTA45 [4]; compounds 50 µM): 5.11 °C

SMILES: Cc1ccc(Cn2cc(C(=O)c3ccc4c(c3)OCO4)c(=O)c3cc4c(cc32)OCO4)cc1 [Compound 15]
- ΔTm/°C, stabilization of TTA45 by FRET (Table S2) (TTA45 [4]; compounds 50 µM): 0.70 °C

- ΔTm ([1]; 20 µM compound): 14.08 ± 2.11 °C
SMILES: Cc1ccc(-c2nnc3c4cc5c(cc4n(Cc4ccccc4)cc2-3)OCO5)cc1C [Compound 27]
- ΔTm/°C, TTA45 stabilization by FRET (Table S3) (TTA45 [4]): 14.08 ± 2.11 °C

- ΔTm ([1]; 20 µM compound): 13.40 ± 1.12 °C
SMILES: COc1cccc(Cn2cc3c(-c4ccc5c(c4)OCO5)nnc-3c3cc4c(cc32)OCO4)c1 [Compound 30]
- ΔTm/°C, TTA45 stabilization by FRET (Table S3) (TTA45 [4]): 13.40 ± 1.12 °C

- ΔTm ([1]; 20 µM compound): 15.15 ± 0.23 °C
SMILES: COc1ccc(Cn2cc3c(-c4ccc5c(c4)OCO5)nnc-3c3cc4c(cc32)OCO4)cc1OC [Compound 31]
- ΔTm/°C, TTA45 stabilization by FRET (Table S3) (TTA45 [4]): 15.15 ± 0.23 °C

- ΔTm ([1]; 20 µM compound): 10.42 ± 1.60 °C
SMILES: Fc1ccc(-c2nnc3c4cc5c(cc4n(Cc4ccccc4F)cc2-3)OCCO5)cc1 [Compound 33]
- ΔTm/°C, TTA45 stabilization by FRET (Table S3) (TTA45 [4]): 10.42 ± 1.60 °C

SMILES: CCOc1ccc(-c2nnc3c4cc5c(cc4[nH]cc2-3)OCCO5)cc1 [Compound 34]
- ΔTm/°C, TTA45 stabilization by FRET (Table S3) (TTA45 [4]): 3.55 ± 1.20 °C

SMILES: COc1ccc(-c2nn(-c3ccc(F)cc3)c3c2cnc2cc4c(cc23)OCO4)cc1 [Compound 37]
- ΔTm/°C, TTA45 stabilization by FRET (Table S3) (TTA45 [4]): 2.19 ± 0.91 °C
- stabilization of TTA45 (in words, SAR) (TTA45 [4]): negligible stabilization

SMILES: Fc1ccc(-n2nc(-c3ccccc3)c3cnc4cc5c(cc4c32)OCO5)cc1 [Compound 38]
- ΔTm/°C, TTA45 stabilization by FRET (Table S3) (TTA45 [4]): 0.30 ± 0.82 °C
- stabilization of TTA45 (in words, SAR) (TTA45 [4]): negligible stabilization
